# ChEMBL document CHEMBL1201862, “PubChem BioAssay data set” (2004)
# Activity calls are given as the source filed them.
# Assays:
# [1] = molecular target: T1, Carboxy-terminal domain RNA polymerase II polypeptide A small phosphatase 1 (Homo sapiens, UniProt Q9GZU7); test: inhibitors of CTDSP1, concentration-response testing, biochemical assay, absorbance-based, actives from ultra-high-throughput screening (AID 540297); type: functional
# T1 sequence (Q9GZU7 whole entry): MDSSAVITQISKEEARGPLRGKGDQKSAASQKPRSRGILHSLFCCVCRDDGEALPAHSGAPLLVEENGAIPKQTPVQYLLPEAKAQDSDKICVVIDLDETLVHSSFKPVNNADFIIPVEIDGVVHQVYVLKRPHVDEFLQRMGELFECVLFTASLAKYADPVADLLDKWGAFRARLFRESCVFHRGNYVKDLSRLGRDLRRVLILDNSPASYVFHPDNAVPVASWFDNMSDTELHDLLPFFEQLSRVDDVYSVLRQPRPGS
# [2] = cytotoxicity in HEK-293T cells, dose response, cytotoxicity control for BCR NF-kB inhibitor project, luminescence, B-cell screen hits (AID 489021); type: functional, cell-based;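 also: HEK-293T cells carrying an NF-kB luciferase reporter; cells exposed to compound for about 14 hours before viability readout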
# [3] = cells; type: functional, cell-based
# [4] = cells; type: functional, cell-based; remark: listed apart in the source
# [5] = molecular target: T2, High affinity choline transporter 1 (Homo sapiens, UniProt Q9GZV3); test: CHT inhibitors, dose response, cell-based, 5-point CRC, membrane potential dye (AID 504840); type: functional
# T2 sequence (Q9GZV3 whole entry): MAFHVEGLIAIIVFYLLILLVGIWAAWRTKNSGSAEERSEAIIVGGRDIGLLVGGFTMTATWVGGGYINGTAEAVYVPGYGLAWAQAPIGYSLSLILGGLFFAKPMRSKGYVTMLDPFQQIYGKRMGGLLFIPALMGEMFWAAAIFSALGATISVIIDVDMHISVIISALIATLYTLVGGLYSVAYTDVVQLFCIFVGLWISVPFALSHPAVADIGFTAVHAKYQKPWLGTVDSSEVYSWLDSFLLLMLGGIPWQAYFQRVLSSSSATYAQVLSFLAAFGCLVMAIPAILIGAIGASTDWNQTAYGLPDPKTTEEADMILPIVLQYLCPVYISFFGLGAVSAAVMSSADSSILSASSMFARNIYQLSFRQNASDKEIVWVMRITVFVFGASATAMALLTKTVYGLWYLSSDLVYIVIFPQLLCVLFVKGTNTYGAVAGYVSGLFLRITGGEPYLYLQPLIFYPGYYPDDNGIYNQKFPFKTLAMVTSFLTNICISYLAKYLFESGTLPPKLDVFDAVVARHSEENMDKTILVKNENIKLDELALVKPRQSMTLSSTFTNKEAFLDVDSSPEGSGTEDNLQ
# [6] = molecular target: T3, Oxysterols receptor LXR-beta (Homo sapiens, UniProt P55055); type: functional, cell-based;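 also: agonist activity at LXR measured by a cell-based luminescence readout across a dose range, run as a counterscreen for daf-12 agonists; HEK293 cells with Gal4-LXR fusion and GAL4-driven luciferase reporter; potency for activation of Gal4-LXR reporter so compounds are agonists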
# T3 sequence (P55055 whole entry): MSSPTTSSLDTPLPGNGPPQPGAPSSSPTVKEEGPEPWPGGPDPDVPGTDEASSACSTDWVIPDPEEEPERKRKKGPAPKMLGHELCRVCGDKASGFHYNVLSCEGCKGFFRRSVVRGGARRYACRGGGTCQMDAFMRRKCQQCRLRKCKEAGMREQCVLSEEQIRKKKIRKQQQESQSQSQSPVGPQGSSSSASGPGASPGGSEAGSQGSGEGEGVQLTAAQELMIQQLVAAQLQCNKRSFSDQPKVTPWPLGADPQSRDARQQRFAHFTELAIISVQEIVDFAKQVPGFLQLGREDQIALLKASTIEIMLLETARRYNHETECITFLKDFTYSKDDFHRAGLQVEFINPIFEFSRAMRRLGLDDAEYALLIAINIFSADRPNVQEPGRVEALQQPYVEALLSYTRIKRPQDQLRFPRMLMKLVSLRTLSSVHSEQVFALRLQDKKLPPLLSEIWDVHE
# [7] = system: H4; test: Luminescence Cell-Based Dose Response HTS to Identify Activators of 5'UTR Stem-Loop Driven Prion Protein mRNA Translation in H4 Neuroglioblastoma Cells. [Related pubchem assays: 1829 (Project Summary), 1814 (Primary HTS)]; type: functional; conditions: Homo sapiens
# [8] = molecular target: T4, CAAX prenyl protease 2 (Saccharomyces cerevisiae S288c, UniProt Q03530); type: biochemical
# T4 sequence (Q03530 whole entry): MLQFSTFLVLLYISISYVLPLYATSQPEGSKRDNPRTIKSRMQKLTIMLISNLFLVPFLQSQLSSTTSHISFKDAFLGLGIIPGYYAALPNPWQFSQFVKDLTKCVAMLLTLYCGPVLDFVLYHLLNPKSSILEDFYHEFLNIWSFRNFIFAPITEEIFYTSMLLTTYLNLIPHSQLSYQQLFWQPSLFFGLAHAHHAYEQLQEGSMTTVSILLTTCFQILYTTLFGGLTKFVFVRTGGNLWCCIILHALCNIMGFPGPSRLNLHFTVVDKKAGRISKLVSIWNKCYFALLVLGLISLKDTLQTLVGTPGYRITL
# [9] = Luminescence Cell-Based Dose Retest to Confirm Inhibitors of Cancer Stem Cells. [Related pubchem assays (depositor defined):AID2717, AID2721]; type: functional; conditions: Homo sapiens
# [10] = molecular target: Nonstructural protein 1 (Influenza A virus, UniProt Q194T2); type: functional, Influenza A virus (A/California/07/2009(H1N1))
# [11] = system: Vero; test: cells; type: functional; conditions: Chlorocebus sabaeus
# [12] = cells; type: functional
# [13] = inhibitors of intracellular T. cruzi replication, confirmation, NIH3T3 host cells, beta-gal luminescence (AID 2044); type: functional, cell-based;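 also: intracellular parasites grown in NIH/3T3 mouse fibroblasts as host cells; luminescent beta-galactosidase reporter signal from transgenic T. cruzi replicating inside host cells; inhibitors lower the luminescence signal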
# [14] = system: HeLa; test: HeLa cell cytotoxicity, dose response, cytotoxicity control for MITF activator project, CellTiter-Glo luminescence, cherry-pick samples (AID 540259); type: functional, cell-based; conditions: Homo sapiens
# [15] = molecular target: Heat shock protein HSP 90-alpha (Homo sapiens, UniProt P07900); type: functional, organism-based
# [16] = molecular target: Induced myeloid leukemia cell differentiation protein Mcl-1 (Homo sapiens, UniProt Q07820); type: functional
# [17] = molecular target: Glyceraldehyde-3-phosphate dehydrogenase (Homo sapiens, UniProt P04406)
# [18] = molecular target: Glucose-6-phosphate 1-dehydrogenase (Homo sapiens, UniProt P11413); test: human G6PD enzyme inhibitors, dose response, selectivity assay for P. falciparum G6PD inhibitor project, biochemical, fluorescence (AID 504792); type: functional
# [19] = molecular target: Genome polyprotein (dengue virus type 2, UniProt P29990); test: Dengue-2 NS5 methyltransferase inhibitors, primary screen, biochemical, confirmation dose response (AID 588689); type: functional
# [20] = system: BJ; test: cytotoxicity toward BJ-TERT-LT-ST fibroblasts, dose response, cell-based, RAS-independent, luminescence (AID 1935); type: functional; conditions: Homo sapiens;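 also: BJ fibroblasts immortalized with TERT plus LT and ST oncogenes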
# [21] = system: BJ; test: cytotoxicity toward BJ-TERT fibroblasts, dose response, cell-based, RAS-independent, luminescence (AID 1933); type: functional; conditions: Homo sapiens
# [22] = cytotoxicity toward DRD oncogenic fibroblasts, dose response, cell-based, non-viral oncogenic, luminescence (AID 1934); type: functional; conditions: Homo sapiens
# [23] = system: BJ; test: cells; type: functional, cell-based; conditions: Homo sapiens
# [24] = CEM21 lymphoblast cell cytotoxicity, dose response, cytotoxicity control for viral fusion inhibitor project, CellTiter-Glo luminescence, cherry-picked (AID 652042); type: functional, cell-based;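 also: potency for signal decrease meaning cytotoxicity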
# [25] = inhibitors of HIV Env-driven cell fusion, dose response, cherry-pick (AID 652057); type: functional, cell-based
# [26] = ZM109 Env clade C HIV-1 fusion inhibitors, dose response, HeLa effector, CEM target cells, luciferase, cherry-pick (AID 652058); type: functional, cell-based
# [27] = inhibitors of clade B AD8 Env fusion, dose response, cell-based, cherry-pick (AID 652062); type: functional;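 also: luciferase signal from cell-cell fusion driven by HIV-1 clade B AD8 Env; potency is for inhibitors of fusion seen as a drop in luminescence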
# [28] = system: Vero; test: Vero cell cytotoxicity, cytotoxicity control for flavivirus capping enzyme inhibitors (AID 588742); type: functional; conditions: Chlorocebus sabaeus
# Chain of Nonstructural protein 1 (Q194T2 whole entry): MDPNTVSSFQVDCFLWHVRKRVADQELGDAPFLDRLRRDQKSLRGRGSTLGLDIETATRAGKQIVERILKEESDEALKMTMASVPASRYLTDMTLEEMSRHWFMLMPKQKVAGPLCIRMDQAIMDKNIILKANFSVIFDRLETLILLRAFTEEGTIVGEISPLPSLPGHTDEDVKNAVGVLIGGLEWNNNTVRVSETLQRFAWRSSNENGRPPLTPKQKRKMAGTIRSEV
# Chain of Genome polyprotein (P29990 2492-3391 limits assumed): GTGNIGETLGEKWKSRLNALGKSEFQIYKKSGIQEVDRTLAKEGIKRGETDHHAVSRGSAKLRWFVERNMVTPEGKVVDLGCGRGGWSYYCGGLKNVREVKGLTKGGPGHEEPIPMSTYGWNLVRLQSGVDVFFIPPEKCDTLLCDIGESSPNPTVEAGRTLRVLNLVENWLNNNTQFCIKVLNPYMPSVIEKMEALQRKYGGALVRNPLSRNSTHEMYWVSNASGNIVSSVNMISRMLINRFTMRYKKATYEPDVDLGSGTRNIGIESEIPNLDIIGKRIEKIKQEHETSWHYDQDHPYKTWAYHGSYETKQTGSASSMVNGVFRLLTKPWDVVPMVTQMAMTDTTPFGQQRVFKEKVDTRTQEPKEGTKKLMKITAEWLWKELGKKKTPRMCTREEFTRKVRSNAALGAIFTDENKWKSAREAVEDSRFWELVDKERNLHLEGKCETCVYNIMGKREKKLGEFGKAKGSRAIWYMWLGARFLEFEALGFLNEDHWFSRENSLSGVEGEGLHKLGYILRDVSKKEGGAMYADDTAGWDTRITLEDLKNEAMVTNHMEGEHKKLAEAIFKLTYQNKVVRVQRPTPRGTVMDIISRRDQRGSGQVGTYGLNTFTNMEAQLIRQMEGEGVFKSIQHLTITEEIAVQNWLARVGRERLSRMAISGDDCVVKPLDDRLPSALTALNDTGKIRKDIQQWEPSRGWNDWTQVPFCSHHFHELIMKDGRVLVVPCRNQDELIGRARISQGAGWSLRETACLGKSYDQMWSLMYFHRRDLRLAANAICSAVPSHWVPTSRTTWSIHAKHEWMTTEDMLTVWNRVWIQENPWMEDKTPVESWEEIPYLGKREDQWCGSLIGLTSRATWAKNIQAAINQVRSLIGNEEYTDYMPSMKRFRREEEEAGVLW
# Chain of Glucose-6-phosphate 1-dehydrogenase (P11413 whole entry): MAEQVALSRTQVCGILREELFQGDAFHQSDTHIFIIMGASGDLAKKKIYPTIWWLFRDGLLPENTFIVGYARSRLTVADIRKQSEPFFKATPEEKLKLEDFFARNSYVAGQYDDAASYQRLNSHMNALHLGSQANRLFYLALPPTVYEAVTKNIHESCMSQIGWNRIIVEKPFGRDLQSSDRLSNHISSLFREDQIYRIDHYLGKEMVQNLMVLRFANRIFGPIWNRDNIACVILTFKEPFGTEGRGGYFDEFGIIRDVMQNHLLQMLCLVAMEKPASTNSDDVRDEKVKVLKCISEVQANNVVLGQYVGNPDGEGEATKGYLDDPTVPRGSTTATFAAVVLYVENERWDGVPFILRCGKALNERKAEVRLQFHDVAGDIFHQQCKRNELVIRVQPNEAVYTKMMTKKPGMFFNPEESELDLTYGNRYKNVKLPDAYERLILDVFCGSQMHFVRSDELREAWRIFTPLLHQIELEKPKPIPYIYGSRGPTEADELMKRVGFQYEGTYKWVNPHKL
# Chain of Induced myeloid leukemia cell differentiation protein Mcl-1 (Q07820 whole entry): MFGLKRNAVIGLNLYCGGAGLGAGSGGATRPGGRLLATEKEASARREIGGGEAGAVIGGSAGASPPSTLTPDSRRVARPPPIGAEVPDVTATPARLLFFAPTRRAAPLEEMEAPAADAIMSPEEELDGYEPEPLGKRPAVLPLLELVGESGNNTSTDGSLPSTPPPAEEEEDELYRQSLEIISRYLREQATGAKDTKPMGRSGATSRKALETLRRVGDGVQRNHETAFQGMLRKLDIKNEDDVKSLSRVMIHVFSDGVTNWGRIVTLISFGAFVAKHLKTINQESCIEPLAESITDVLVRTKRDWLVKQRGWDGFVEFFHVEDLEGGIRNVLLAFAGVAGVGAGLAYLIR
# Chain of Glyceraldehyde-3-phosphate dehydrogenase (P04406 whole entry): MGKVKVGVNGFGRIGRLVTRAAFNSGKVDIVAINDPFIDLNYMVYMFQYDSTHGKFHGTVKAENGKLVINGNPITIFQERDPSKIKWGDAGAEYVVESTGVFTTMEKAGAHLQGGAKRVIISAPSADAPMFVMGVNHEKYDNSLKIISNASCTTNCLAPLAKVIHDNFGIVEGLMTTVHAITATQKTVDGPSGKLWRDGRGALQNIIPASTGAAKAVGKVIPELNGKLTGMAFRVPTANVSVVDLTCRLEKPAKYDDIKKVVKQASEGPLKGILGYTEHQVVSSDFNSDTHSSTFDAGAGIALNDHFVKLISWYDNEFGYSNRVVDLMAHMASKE
compound,measurement,setting,value
CCOc1ccc(/C=C2\SC(=S)N(CCC(=O)Nc3ccc(C(=O)O)cc3)C2=O)cc1,IC50,[1],1.88 µM (active)
same,IC50,[2],> 80 µM (inactive)
CCn1c(=O)c2cc(C(=O)NC(C)C)sc2c2ccccc21,IC50,[2],27.6 µM (inactive)
Cc1ccc(CSc2nnc(CCCCCNC(=O)OC(C)(C)C)o2)cc1,EC50,[3],> 350 µM (not active)
same,EC50,[4],> 350 µM (not active)
Fc1ccc(-c2nc3c(-c4ccccc4)cnn3cc2CCN2CCOCC2)cc1,IC50,[5],13.2 µM (active)
O=C(CCCc1ccccc1)NC12CC3CC(CC(C3)C1)C2,EC50,[6],> 67.5 µM (inactive)
same,EC50,[7],> 120 µM (not active)
CN1CCN(C(=O)c2ccc(-c3cccs3)s2)CC1,AC50,[8],32.5 µM (active)
CC(C)N1CCN(Cc2ccc(OCc3ccccc3)cc2)CC1CCO (stereo not given),AC50,[8],72.9 µM (active)
same,AC50,[9],3.36 µM (active)
Cc1ccc(S(=O)(=O)N2CCOCC2)cc1NC(=O)CNCc1ccccn1,IC50,[10],18 µM (active)
CCOc1cc2nc(-c3ccc(OC)c(OC)c3)nc(N3CCOCC3)c2cc1OC,IC50,[2],> 80 µM (inactive)
CCN(Cc1ccccc1)S(=O)(=O)c1ccc(C(=O)N(CCCN(C)C)c2nc3ccc(F)cc3s2)cc1,CC50,[11],> 25 µM (active)
Nc1nnc(Sc2ncccc2[N+](=O)[O-])s1,IC50,[12],15.3 µM (active)
COc1cccc(NC(=O)c2cnc(SC)nc2)c1,IC50,[12],15.3 µM (active)
CC(C)N1C(=O)/C(=C\c2nc3ccccc3c(=O)n2-c2ccccc2)c2ccccc21,IC50,[10],50.5 µM (active)
same,EC50,[13],1.36 µM (active)
same,AC50,[9],8.71 µM (active)
CCOC(=O)c1c(-c2ccc(C)cc2C)csc1NC(=O)CSc1nnnn1C,CC50,[11],23.2 µM (active)
Cc1ccccc1N=C(S)N(CCN(C)C)C(C)c1ccccn1 (stereo not given),IC50,[10],64.5 µM (active)
Cc1ccc(N=Nc2ccc(O)cc2)c(Br)c1,AC50,[14],39.2 µM (active)
same,EC50,[6],> 67.5 µM (inactive)
same,AC50,[15],7.83 µM (active)
same,AC50,[9],6.26 µM (active)
CCCCc1ccc(NC(S)=NCC2CCCO2)cc1 (stereo not given),IC50,[5],15.8 µM (active)
Cc1cc(N/C=C/C(=O)c2ccc(Br)cc2)no1,EC50,[3],59.3 µM (active)
same,EC50,[4],> 350 µM (not active)
O=C(C1=NN[C@@H]2C(=O)N(c3cccc(C(F)(F)F)c3)C(=O)[C@H]12)C(c1ccccc1)c1ccccc1,EC50,[3],> 350 µM (not active)
same,EC50,[4],> 350 µM (not active)
OC(c1ccccn1)(c1ccccn1)c1ccccn1,IC50,[10],10.9 µM (active)
Nc1ccc(C2=Nc3cccc4cccc(c34)N2)cc1,IC50,[16],2.86 µM (active)
Cc1ccc(SCC(=O)Nc2nnc[nH]2)cc1,IC50,[17],> 10 µM (inconclusive)
Cc1ccc(-n2ncc3c2CCCC3NC(=O)c2ccccc2N2CCOCC2)cc1C (stereo not given),AC50,[15],0.984 µM (active)
O=C(/C=C/c1ccccc1)NCCc1nc2ccccc2[nH]1,EC50,[3],> 350 µM (not active)
same,EC50,[4],> 350 µM (not active)
Cc1ccc(-n2ncc3ccccc3c2=O)cc1Cl,EC50,[6],> 67.6 µM (inactive)
Sc1nc2c[nH]c(S)nc-2n1,IC50,[18],> 80 µM (inactive)
C#CCN(Cc1ccccc1)S(=O)(=O)C=C,IC50,[2],> 80 µM (inactive)
O=C(O)C(Cc1ccccc1)N1C(=O)C=CC1=O (stereo not given),IC50,[19],> 100 µM (active)
same,IC50,[18],> 80 µM (inactive)
CCCCCCN1C[C@@H](n2cc(COC(=O)c3ccccc3)nn2)[C@H](O)C[C@@H]1c1ccc(C)cc1,CC50,[11],> 25 µM (active)
COc1ccc(/C=N/n2cnc3c4cc(F)ccc4nc-3c2O)cc1CN1CCCC1,EC50,[20],4.92 µM (active)
same,EC50,[21],5.03 µM (inconclusive)
same,EC50,[22],5.47 µM (inconclusive)
same,EC50,[23],9.17 µM (inconclusive)
CN(C)c1ccc(N=Nc2nccs2)cc1,EC50,[6],> 67.4 µM (inactive)
CC(C)C#Cc1ccc2c(c1)O[C@@H](CN(C)C(=O)C1CCCCC1)[C@H](C)CN([C@H](C)CO)S2(=O)=O,AC50,[24],21.3 µM (active)
same,AC50,[25],21.2 µM (active)
O=C(C[C@H]1CC[C@@H](NC(=O)c2ccccc2)[C@H](CO)O1)NCc1ccc(Oc2ccccc2)cc1,AC50,[26],0.349 µM (active)
same,AC50,[24],62.1 µM (active)
same,AC50,[25],3.8 µM (active)
same,AC50,[27],4.3 µM (active)
COc1ccc(-c2cc(C(F)(F)F)c3c(=O)n(-c4ccccc4)[nH]c3n2)cc1,IC50,[19],44.2 µM (active)
same,CC50,[28],> 40 µM (active)
